For 28 compounds, IC50 and inhibition results are on record in US6331555A, “Treatment of platelet derived growth factor related disorders such as cancers” (priority 1999, dated 2001).

SMILES strings stand for the structures. pIC50: −log10 of the molar value. Like-named read-outs stand apart in the source and are kept apart here.

One test has as its target PDGFR (Homo sapiens, UniProt P09619). In words: PDGF-stimulated receptor phosphorylation in U1242 cells, ELISA. In kind it is cell-based. More on the design: U1242 (PDGF-β receptor); host or cells: U1242 MG glioma cells. As to the method: For ELISA assays, cells were grown to 80-90% confluency in growth medium and seeded in 96-well tissue culture plates in 0.5% serum at 25,000 to 30,000 cells per well. After overnight incubation in 0.5% serum-containingmedium, cells were changed to serum-free medium and treated with test compound for 2 hr in a 5% CO2, 37° C. incubator. Cells were then stimulated with ligand for 5-10 min followed by lysis with HNTG (20 mM Hepes, 150 mM NaCl, 10% glycerol, 5 mM EDTA, 5 mM Na3 VO4 0.2% Triton X-100, and 2 mM NaPyr). […] Lysates were incubated with shaking for 1 hr at room temperature. The plates were washed with TBST four times and then incubated with polyclonol anti-phosphotyrosine antibody at room temperature for 30 min. Excess anti-phosphotyrosine antibody was removed by rinsing the plate with TBST four times. Goat anti-rabbit IgG antibody was added to the ELISA plate for 30 min at room temperature followed by rinsing with TBST four more times.
U1242 MG cells were plated in 96-well plates at a concentration of 5×10^4 cells/well in cultured media containing 0.5% FBS. The cells were incubated for 24 hours. The cells were then treated with a particular compound for 2 hours followed by the addition of 100 ng/ml PDGF-BB and incubation for 10 minutes.
Cells were lysed in 0.2 M Hepes, 0.15 M NaCl, 10% V/V glycerol, 0.04% Triton X-100, 5 mM EDTA, 5 MM Na^+ vanadate and […] Na^+ pyrophosphate. Cell lysates were then added to an ELISA plate coated with an anti-PDGF receptor antibody (Genzyme). ELISA plates were coated at […] of antibody/well in […] of PBS for 18 hours at 4° C. prior to the addition of the lysate.
The lysate was incubated in the coated plates for 1 hour and then washed four times in TBST (35 mM Tris-HCl pH 7.0, 0.15 M NaCl, 0.1% Triton X-100). Anti-phosphotyrosine antibody ([…] in PBS) was added and the mixture was incubated for 30 minutes at room temperature. The wells were then washed four times in TBST, a secondary antibody conjugated to POD (TAGO) was added to each well, and the treated wells were incubated for 30 minutes at room temperature. The wells were then washed four times in TBST, ABTS/H2 O2 solution was added to each well and the wells were incubated for two minutes. Absorbance was then measured at 410 nm.
(In an ELISA, binding on a coated surface is turned into a signal by an enzyme label.)

In a further test the test system is C6 cells. In words: C6 SRB growth assay. In kind it is cell-based, rat. The note with it: Rattus norvegicus, C6; for pIC50: read-out: C6 SRB IC50. Background: In SRB staining, fixed cells bind dye roughly in proportion to their protein.
[1] abbreviates: 100 ng/ml PDGF-BB, read-out: ELISA P-TYR U1242 IC50.

Sequence of PDGFR (P09619 33-1106): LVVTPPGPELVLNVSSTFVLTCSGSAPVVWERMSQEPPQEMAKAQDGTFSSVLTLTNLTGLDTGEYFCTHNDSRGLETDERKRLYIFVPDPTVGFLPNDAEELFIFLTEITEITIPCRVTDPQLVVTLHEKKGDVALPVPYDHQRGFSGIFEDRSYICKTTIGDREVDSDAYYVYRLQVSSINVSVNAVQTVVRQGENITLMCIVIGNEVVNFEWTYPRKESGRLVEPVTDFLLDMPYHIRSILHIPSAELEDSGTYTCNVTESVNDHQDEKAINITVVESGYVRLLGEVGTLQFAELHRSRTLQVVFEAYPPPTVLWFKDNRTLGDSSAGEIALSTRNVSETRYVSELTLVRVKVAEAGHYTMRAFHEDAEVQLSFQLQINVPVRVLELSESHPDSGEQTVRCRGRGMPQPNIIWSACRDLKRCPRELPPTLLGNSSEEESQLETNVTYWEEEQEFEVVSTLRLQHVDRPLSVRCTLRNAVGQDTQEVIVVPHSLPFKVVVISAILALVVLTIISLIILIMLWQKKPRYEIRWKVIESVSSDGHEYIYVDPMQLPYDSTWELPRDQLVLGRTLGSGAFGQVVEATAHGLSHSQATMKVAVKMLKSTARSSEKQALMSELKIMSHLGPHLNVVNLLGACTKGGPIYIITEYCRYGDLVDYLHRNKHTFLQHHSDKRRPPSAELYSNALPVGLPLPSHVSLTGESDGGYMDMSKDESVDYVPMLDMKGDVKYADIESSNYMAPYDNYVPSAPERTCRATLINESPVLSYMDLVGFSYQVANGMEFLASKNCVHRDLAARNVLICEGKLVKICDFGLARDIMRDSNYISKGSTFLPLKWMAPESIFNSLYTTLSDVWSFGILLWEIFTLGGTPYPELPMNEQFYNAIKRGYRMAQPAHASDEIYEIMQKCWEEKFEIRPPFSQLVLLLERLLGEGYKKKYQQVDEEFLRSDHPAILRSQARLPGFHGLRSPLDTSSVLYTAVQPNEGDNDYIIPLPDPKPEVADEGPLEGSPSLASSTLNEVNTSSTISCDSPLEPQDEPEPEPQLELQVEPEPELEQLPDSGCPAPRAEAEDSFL

`CC(NC(=O)C(C#N)=Cc1ccc2[nH]ccc2c1)c1ccccc1` (single isomer, unassigned) [Compound I10]: the pIC50 – broadly, the negative decadic logarithm of the IC50, by convention in mol/L – at PDGFR (setting [1]) is 4.05.
As to `CC(O)=C(C#N)C(=O)Nc1ccc([N+](=O)[O-])cc1` [Compound B10], the pIC50 at PDGFR (setting [1]) is 3.74.
As to `N#CC(C(=O)Nc1ccc(C(F)(F)F)cc1)=C(O)c1ccc(F)cc1` [Compound B12, 2-Propenamide, 2-cyano-3-hydroxy-3-(4-fluorophenyl)-N-[(4-trifluoromethyl)phenyl]], the negative logarithm of the IC50 (pIC50) at PDGFR (setting [1]) is 4.00.
On to `N#CC(C(=O)Nc1ccc(C(F)(F)F)cc1)=C(O)C1CCCCC1` [Compound B13, 2-Propenamide, 2-cyano-3-hydroxy-3-cyclohexyl-N-[(4-trifluoromethyl)phenyl]], for which the negative logarithm of the IC50 (pIC50) on PDGFR (setting [1]) was 3.74.
In the case of `CC1(C)C(C(O)=C(C#N)C(=O)Nc2ccc(C(F)(F)F)cc2)C1(C)C` [Compound B14, 2-cyano-3-hydroxy-3-(2,2,3,3-tetramethylcyclopropyl)-propanol-4-(trifluoromethyl)anilide], the pIC50 at PDGFR (setting [1]) was 3.74.
Regarding `N#CC(C(=O)Nc1ccc(C(F)(F)F)cc1)=C(O)c1c(F)c(F)c(F)c(F)c1F` [Compound B15, 2-Propenamide, 2-cyano-3-hydroxy-3-(pentafluorophenyl)-N-[(4-trifluoromethyl)phenyl]], on PDGFR (setting [1]), the pIC50 was 3.92.
For `N#CC(C(=O)Nc1ccc(C(F)(F)F)cc1)=C(O)Cc1ccccc1` [Compound B17, 2-Butenamide, 2-cyano-3-hydroxy-4-phenyl-N-[(4-trifluoromethyl)phenyl]], the negative-log IC50 (pIC50) at PDGFR (setting [1]) was 3.90.
In the case of `CC(C)CC(O)=C(C#N)C(=O)Nc1ccc(C(F)(F)F)cc1` [Compound B18, 2-Hexeneamide, 2-cyano-3-hydroxy-5-methyl-N-[(4-trifluoromethyl)phenyl]], the negative logarithm of the IC50 (pIC50) on PDGFR (setting [1]) is 3.80.
For the compound `N#CC(C(=O)Nc1ccc(C(F)(F)F)cc1)=C(O)C(c1ccccc1)c1ccccc1` [Compound B19, 2-Butenamide, 2-cyano-3-hydroxy-4,4-diphenyl-N-[(4-trifluoromethyl)phenyl]], the negative-log IC50 (pIC50) at PDGFR (setting [1]) was 4.00.
Take `N#CC(=Cc1ccc(O)c(O)c1)c1[nH]nc(N)c1C#N` [Compound C11]: the pIC50 at PDGFR (setting [1]) was 4.15.
Consider `N#CC(=Cc1c[nH]c2ccccc12)C(N)=C(C#N)C#N` [Compound D12], for which the negative logarithm of the IC50 (pIC50) against PDGFR was 4.22.
As to `CN(C)CCCn1cc(C=C(C#N)C(=O)c2ccc(O)c(O)c2)c2ccccc21` [Compound D16], the pIC50 at PDGFR (setting [1]) is 4.30.
Turning to `N#CCCn1cc(C=C(C#N)C(=O)c2ccc(O)c(O)c2)c2ccccc21` [Compound D17], the pIC50 at PDGFR (setting [1]) was less than 4.00.
In the case of `CN(C)c1ccc(NC(=O)C(=O)NN=Cc2ccc(O)c(O)c2)cc1` [Compound E10], at PDGFR (setting [1]), the negative-log IC50 (pIC50) was 4.35.
Still for that read-out and setting: under `O=C(NN=Cc1ccc(O)c(O)c1)C(=O)Nc1cccc(O)c1` [Compound E11] stands 4.05; under `O=C(NN=Cc1ccccc1O)C(=O)Nc1cccc(O)c1` [Compound E12], 3.74.
With `COc1ccccc1NC(=O)C(=O)NN=Cc1ccc(O)c(O)c1` [Compound E13], the pIC50 at PDGFR (setting [1]) was less than 4.00.
The same measure, in the same setting: under `O=C(NN=Cc1ccc(O)cc1)C(=O)Nc1cccc([N+](=O)[O-])c1` [Compound E16] stands 3.90; under `O=c1c2ccccc2nc2n1CCOC2=Cc1ccc(O)c(O)c1` [Compound F11], 4.00.
As to `O=c1c2ccccc2nc2n1CCOC2=Cc1cccc(O)c1` [Compound F12], the pIC50 on PDGFR (setting [1]) was 4.15.
On to `c1csc(-c2cnc3ccccc3n2)c1` [Compound G15], for which the negative logarithm of the IC50 (pIC50) at PDGFR (setting [1]) is 4.00.
On the same count and under the same terms, under `COc1cc2nc(-c3ccccc3)cnc2cc1O` [Compound G17] stands 4.00; under `Cc1ccc2ncc(-c3ccccc3)nc2c1` [Compound G19], 4.05.
As to `Oc1cc2ncc(-c3ccccc3)nc2cc1O` [Compound G20], the pIC50 on PDGFR (setting [1]) was less than 4.00.
Regarding `N#CC(C(=O)N1CCOCC1)C(=S)Nc1ccccc1Cl` (centres unmarked) [Compound P19, N-2-chlorophenyl (2-cyano-2-N-morpholinocarbonyl) thioacetamide], in the test on C6 cells, the pIC50 is less than 4.30.
On to `Cc1noc(C)c1C(=O)NCc1ccc(C(F)(F)F)cc1` [Compound P22, N-4-trifluoromethlybenzy 3,5-dimethylisoxazole-4-carboxamide], for which, in the test with C6 cells (at 25 μM), the inhibition (in general, the share of the control response that was lost under treatment) at 25 µM is approximately 10%. Also, the negative logarithm of the IC50 (pIC50) in the test with C6 cells was less than 4.60.
As for `Cc1oncc1C(=O)NCc1ccc(C(F)(F)F)cc1` [Compound P23], the pIC50 in the test on C6 cells was 4.74.
With `CC(O)=C(C#N)C(=O)NCc1ccc(C(F)(F)F)cc1` [Compound P24, 1-trifluorometnlybenzylaminocarbonly-1-cyano-2-hydroxy propene], in the test with C6 cells, the pIC50 was 4.85.
